# Results reported in publication PMC9822400, “The Lipophilic Purine Nucleoside—Tdp1 Inhibitor—Enhances DNA Damage Induced by Topotecan In Vitro and Potentiates the Antitumor Effect of Topotecan In Vivo” (Molecules, 2022).
# Entries after “also recorded” stand apart in the source; their conditions may differ.
# Assays:
# [1] = biological target: T1, purified recombinant human Tdp1 (Homo sapiens, UniProt Q9NUW8); test: Real-time detection of Tdp1 activity (removal of BHQ1 from a 5′-FAM 16-nt oligonucleotide, fluorescence); format: biochemical; conditions: for IC50: 1.5 nM Tdp1, 50 nM oligonucleotide, 25 °C, three independent experiments
# T1 construct: made in house
# T1 sequence (Q9NUW8 whole entry): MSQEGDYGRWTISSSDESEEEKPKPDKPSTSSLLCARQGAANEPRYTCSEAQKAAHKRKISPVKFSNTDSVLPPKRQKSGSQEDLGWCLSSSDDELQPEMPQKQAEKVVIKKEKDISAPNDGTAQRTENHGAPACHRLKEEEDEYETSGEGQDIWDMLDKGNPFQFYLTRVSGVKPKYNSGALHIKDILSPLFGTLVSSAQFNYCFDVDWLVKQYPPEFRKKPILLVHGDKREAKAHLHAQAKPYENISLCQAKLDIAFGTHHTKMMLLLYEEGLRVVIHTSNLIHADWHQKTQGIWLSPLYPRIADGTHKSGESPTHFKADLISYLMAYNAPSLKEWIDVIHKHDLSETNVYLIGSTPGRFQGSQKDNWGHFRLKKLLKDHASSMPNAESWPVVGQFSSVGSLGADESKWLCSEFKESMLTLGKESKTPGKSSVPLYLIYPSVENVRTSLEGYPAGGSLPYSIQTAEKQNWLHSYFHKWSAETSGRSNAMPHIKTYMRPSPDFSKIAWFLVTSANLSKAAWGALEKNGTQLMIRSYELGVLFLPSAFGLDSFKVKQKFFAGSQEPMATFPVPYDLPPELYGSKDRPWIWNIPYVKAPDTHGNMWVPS
# Description: In this work, four natural nucleosides (1-4) and […] aromatic lipophilic derivatives of purine nucleosides (5a-f, 6a-d) were tested for Tdp1 activity. The used test system was based on the enzyme’s ability to remove Black Hole Quencher 1 (BHQ1) from the 3′ end of a 5′ FAM 16-nt oligonucleotide. As a result, an increase in FAM fluorescence was detected and the obtained kinetic curves were used to calculate the IC50 parameter (the concentration of the inhibitor at which the enzyme activity is reduced by half). We have found potent Tdp1 inhibitors with IC50 in the range from 0.3 to 7 μM (Table 1).
# Purified human recombinant Tdp1 was prepared as described earlier. Real-time detection of Tdp1 activity was reported in our previous work. The approach consists of a fluorescence intensity measurement of the reaction of quencher removal from the fluorophore-quencher coupled DNA oligonucleotide catalyzed by Tdp1 in the presence of the inhibitor (the control samples contained 1% DMSO). The biosensor was single-stranded oligonucleotide (5′-[FAM] AAC GTC AGGGTC TTC C [BHQ]-3′) containing fluorophore at the 5′ end (5,6-FAM) and a Black Hole Quencher 1 (BHQ) at the 3′ end, and was synthesized in the Laboratory of nucleic acid chemistry at the Institute of Chemical Biology and Fundamental Medicine SB RAS, Novosibirsk, Russia. The reactions were incubated at a constant temperature 25 °C in a POLARstar OPTIMA fluorimeter, BMG LABTECH, GmbH, to measure fluorescence every 55 s (Ex485/Em520 nm) during the linear phase (here, the data are from 0 to 8 min). […] The IC50 values were determined using a six-point concentration response curve in three independent experiments and calculated using MARS Data Analysis 2.0 (BMG LABTECH).
# [2] = Cell culture cytotoxicity assay (EZ4U colorimetric test); format: cell-based; conditions: human, HeLa cells
# Source text: (§1) Tdp1 inhibitors are intended to be used in therapeutic cocktails to sensitize tumors to the action of anticancer Top1 poisons. […] To assess the toxicity of the compounds, their effect on the survival of the HeLa cell line (human cervical cancer) was studied using the colorimetric test of metabolic activity of cells EZ4U, which reflects the survival of cells in the presence of the studied compounds. The EZ4U assay is based on the ability of living cells to reduce the colorless tetrazolium salt XTT [sodium 3,3′-{1-(phenylamino)-carbonyl-3,4-tetrazolium) -bis(4-methoxy-6-nitro)-benzene sulfonic acid hydrate] to an orange water-soluble formazan product. This method was used to investigate the intrinsic cytotoxicity of promising inhibitors discovered in the course of this work, as well as the toxicity of their combination with Tpc.
# (§2) Cytotoxicity of the compounds was examined on human cell lines HeLa using an EZ4U colorimetric test (Biomedica, Vienna, Austria). The HeLa cell line was obtained from the Russian Cell Culture Collection (RCCC) Institute of Cytology RAS, St. Petersburg, Russia. The cells were grown in DMEM/F12 medium (Gibco, Thermo Fisher Scientific, Waltham, MA, USA), with 1x GlutaMAX (Gibco, Thermo Fisher Scientific, Waltham, MA, USA), 50 IU/mL penicillin, 50 μg/mL streptomycin (MP Biomedicals), and in the presence of 10% fetal bovine serum (Biolot, Saint-Petersburg, Russia) in a 5% CO2 atmosphere. Since lipophilic nucleosides are soluble in DMSO, cells were grown in the presence of 1% DMSO in the control wells. After the formation of a 30–50% monolayer, the tested compounds were added to the medium, and the cell culture was monitored for 3 days. The values were normalized to their own control in each case. At least three independent experiments were carried out. The 50% cytotoxic concentration (CC50) was defined as the compound concentration that reduced the cell viability by 50% when compared to the untreated controls. The CC50 value was determined using OriginPro 8.6.0 software (OriginLab, Northampton, MA, USA). The measurements were carried out in three independent experiments.
# human recombinant PARP1 = biological target: T2, human recombinant PARP1 (Homo sapiens, UniProt P09874); test: PARP1 activity by inclusion of α-[32P]-NAD+ in poly(ADP-ribose); format: biochemical; conditions: in the presence of 1 mM compound; read-out: Residual activity of PARP1
# T2 construct: made in house
# T2 sequence (P09874 whole entry): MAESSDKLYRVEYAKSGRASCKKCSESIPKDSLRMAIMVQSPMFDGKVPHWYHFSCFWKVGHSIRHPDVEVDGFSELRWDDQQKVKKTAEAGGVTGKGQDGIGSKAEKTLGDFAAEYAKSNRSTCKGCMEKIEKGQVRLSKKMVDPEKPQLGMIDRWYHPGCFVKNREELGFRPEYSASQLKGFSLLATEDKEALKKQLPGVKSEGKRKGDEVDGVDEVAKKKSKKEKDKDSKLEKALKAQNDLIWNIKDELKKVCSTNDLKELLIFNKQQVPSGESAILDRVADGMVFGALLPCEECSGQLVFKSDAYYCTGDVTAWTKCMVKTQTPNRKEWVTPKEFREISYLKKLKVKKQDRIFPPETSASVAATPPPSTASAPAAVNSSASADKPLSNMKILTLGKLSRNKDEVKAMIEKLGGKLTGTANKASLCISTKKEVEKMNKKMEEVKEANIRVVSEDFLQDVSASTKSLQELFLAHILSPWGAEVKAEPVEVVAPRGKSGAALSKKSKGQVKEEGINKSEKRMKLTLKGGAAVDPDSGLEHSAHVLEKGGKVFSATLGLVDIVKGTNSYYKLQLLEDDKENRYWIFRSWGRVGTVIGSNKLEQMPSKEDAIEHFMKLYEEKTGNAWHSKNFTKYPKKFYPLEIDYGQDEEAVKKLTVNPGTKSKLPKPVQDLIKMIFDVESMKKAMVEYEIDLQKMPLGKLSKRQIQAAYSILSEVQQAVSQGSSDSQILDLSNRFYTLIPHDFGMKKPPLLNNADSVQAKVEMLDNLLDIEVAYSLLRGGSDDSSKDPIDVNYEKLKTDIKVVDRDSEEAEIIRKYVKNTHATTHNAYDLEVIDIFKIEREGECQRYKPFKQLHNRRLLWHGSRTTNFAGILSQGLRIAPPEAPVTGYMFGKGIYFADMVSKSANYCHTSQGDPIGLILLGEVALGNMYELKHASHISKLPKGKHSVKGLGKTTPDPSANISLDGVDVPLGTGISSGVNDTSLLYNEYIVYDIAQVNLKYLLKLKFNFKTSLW
# Description: (§3) Since it has previously been shown that nucleoside derivatives can inhibit enzymes of the PARP family, we also checked whether the studied compounds were able to inhibit the enzymes PARP1 and PARP2. […] Thus, when using our compounds, one cannot expect side effects from PARP1/2.
# (§4) Purified human recombinant PARP1/2 [65] and [^32P] NAD^+ [27] were prepared as described earlier. The activity of PARP1/2 was evaluated by the rate of incorporation of the radioactive label into the acid-insoluble reaction product—PAR as described previously.
# human recombinant PARP2 = biological target: T3, human recombinant PARP2 (Homo sapiens, UniProt Q9UGN5); test: PARP2 activity by inclusion of α-[32P]-NAD+ in poly(ADP-ribose); format: biochemical; conditions: in the presence of 1 mM compound; read-out: Residual activity of PARP2
# T3 construct: made in house
# T3 sequence (Q9UGN5 whole entry): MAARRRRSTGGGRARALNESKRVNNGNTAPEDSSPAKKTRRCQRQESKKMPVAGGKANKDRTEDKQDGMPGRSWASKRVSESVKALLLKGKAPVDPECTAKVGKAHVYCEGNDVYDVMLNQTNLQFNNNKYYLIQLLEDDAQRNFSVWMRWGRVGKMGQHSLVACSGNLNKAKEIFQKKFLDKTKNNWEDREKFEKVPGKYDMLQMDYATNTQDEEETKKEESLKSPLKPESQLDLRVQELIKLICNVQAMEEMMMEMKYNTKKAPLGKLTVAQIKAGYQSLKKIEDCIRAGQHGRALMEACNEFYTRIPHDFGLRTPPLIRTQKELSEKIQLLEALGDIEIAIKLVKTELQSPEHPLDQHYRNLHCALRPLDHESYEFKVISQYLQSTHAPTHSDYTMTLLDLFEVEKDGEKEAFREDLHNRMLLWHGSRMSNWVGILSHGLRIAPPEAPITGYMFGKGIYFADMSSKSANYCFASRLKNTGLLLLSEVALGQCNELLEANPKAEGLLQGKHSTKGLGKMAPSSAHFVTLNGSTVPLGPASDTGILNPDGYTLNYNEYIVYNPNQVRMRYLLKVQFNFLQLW
# Description: as §3, §4
# HeLa cells [3] = test: Effect of compounds on topotecan cytotoxicity (EZ4U test); format: cell-based, human; conditions: compound 10 μM in combination with Tpc
# Source text: as §1
# As already mentioned, we expected to increase the efficacy and/or reduce the dosage of Tpc with Tdp1 inhibitors. To do this, we studied the effect of nucleoside derivatives on Tpc cytotoxicity. […] We attribute this to the probable presence of protein targets other than Tdp1 in the cell.
# as §2
# HeLa cells [4] = test: Alkaline Comet assay, accumulation of DNA damage; format: cell-based; conditions: for DNA in tail: Topotecan 10 μM alone (0 μM compound), 1 h
# Source text: We studied the effect of Tdp1 inhibitors 5f and 6d on the accumulation of DNA damage by single-cell gel electrophoresis (Comet assay). […] This method has proven to be a simple, fast, and a quite sensitive way to detect DNA damage at the level of a single cell, allowing one to analyze almost any eukaryotic cell culture. Several analysis options allow one to visualize various types of DNA damage: single- and double-stranded breaks and alkaline-labile sites. This allows this method to be widely used in fundamental studies of DNA damage and repair and in testing the genotoxicity of new chemical and pharmaceutical drugs in vitro and in vivo [51, 52]. To study potential drugs, the alkaline version of the method (pH > 13) proposed by Singh and co-authors is widely used. This method allows the detection of all types of DNA damage with high sensitivity. In cells with a large amount of DNA damage, the structural organization and integrity of DNA are disrupted, which leads to its relaxation and/or fragmentation. As a result, cellular DNA in an electric field gives the observed objects the appearance of a “comet”.
# Before studying the effect of Tdp1 inhibitors on the accumulation of DNA damage, it was necessary to find out how long the generation of DNA damage by Tpc and their repair take place in HeLa cells. To do this, cell culture was treated with Tpc at 1, 10, and 100 μM concentrations for 30 min, 1, 2, and 3 h and the level of damage to individual cells was monitored by Comet assay. It was shown that Tpc caused the greatest amount of damage after 30 minutes’ treatment. After this time, the repair systems began to correct these lesions and as a result, after 3 h most of them have been eliminated (Figure S9). […] The level of DNA damage at this point was enough to be detected, the data were reproducible, and can be evaluated by the Comet assay. The effect could be enhanced by the tested compounds without leading to cell death. It was important for us to see this enhancement in the presence of our compounds.
# HeLa cell culture was grown in a 24-well plate to a concentration of 0.05 million/mL, then treated with the tested compounds and incubated for 1 h. To obtain a cell suspension, the cells were treated with trypsin (30 µL in each well for 5 min at 37 °C), and then 200 µL of PBS + 10% FBS were added to each well.
# The resulting cell suspension (50 µL) was mixed with 250 µL of a 1% solution of molten low melting agarose (CertifiedTM LMAgarose; BIO-RAD), 250 µL of this mixture was transferred to the slides pre-coated with a 1% normal melting agarose (Agarose; Helicon), and left for several minutes at 4 °C to solidify. The resulting slides were incubated in a lysing solution (2.5 M NaCl, 100 mM EDTA, 10 mM Tris base, 1% Triton, 5% DMSO, pH 10.0) for an hour at 4 °C. Then the slides were immersed in an electrophoretic buffer (300 mM NaOH, 1 mM EDTA, pH > 13) for 45 min at 4 °C. Electrophoresis was performed at 20 V, 450 mA for 10 min while cooling on ice. After that, the slides were immersed 2 times for 5 min in 0.4 M Tris-HCl pH 7.5 solution for neutralization, washed twice with cold water, and stained with SYBR Green I (excitation maximum at 497 nm, emission maximum at 520 nm; Thermo Fisher Scientific KK).
# The images were obtained using a CELENA © S digital microscope (Logos Biosystems, Inc., Annandale, VA, USA) and analyzed with Comet analysis software (Trevigen, Inc., Gaithersburg, MD, USA. In all experiments, 2 slides were evaluated for each sample by counting at least 200 cells on the glass. As a parameter for measuring the level of DNA damage, the median value of the percentage of DNA in the tail was chosen (% Tail DNA = 100 × the intensity of DNA fluorescence in the tail of the comet/the intensity of fluorescence of the total DNA of the comet).
SMILES,"Tdp1 inhibition, in words [1]",IC50 [1],CC50 at 3 days [2],remaining activity at 1000 µM (human recombinant PARP1),remaining activity at 1000 µM (human recombinant PARP2),Enhancement of Tpc Cytotoxicity by 10 μM Compounds (HeLa cells [3]),DNA in tail (HeLa cells [4]; series of compound 5f),DNA in tail (HeLa cells [4]; series of compound 6d),"Time after which most DNA lesions have been eliminated (HeLa cells [4]; Tpc at 1, 10 and 100 μM)","Treatment time with the greatest amount of DNA damage (HeLa cells [4]; Tpc at 1, 10 and 100 μM for 30 min, 1, 2 and 3 h)"
OC[C@H]1O[C@@H](n2cnc3c(NCc4ccc(-c5ccccc5)cc4)ncnc32)[C@H](O)[C@@H]1O [5a],practically did not lead to a decrease in Tdp1 activity; also recorded: did not inhibit Tdp1,> 50 µM,> 100 µM,112 ± 11%,101 ± 24%,–,–,–,–,–
OC[C@H]1O[C@@H](n2cnc3c(NCc4c5ccccc5cc5ccccc45)ncnc32)[C@H](O)[C@@H]1O [5c],–,22 ± 3 µM,58 ± 2 µM,92 ± 14%,104 ± 16%,2.2 Times,–,–,–,–
OC[C@H]1O[C@@H](n2cnc3c(NCc4cc5ccc6cccc7ccc(c4)c5c67)ncnc32)[C@H](O)[C@@H]1O [5d],practically did not lead to a decrease in Tdp1 activity; also recorded: did not inhibit Tdp1,> 50 µM,56 ± 10 µM,88 ± 21%,100 ± 15%,–,–,–,–,–
"O=C(OC[C@H]1O[C@@H](n2cnc3c(O)ncnc32)[C@H](OC(=O)c2ccccc2)[C@@H]1OC(=O)c1ccccc1)c1ccccc1 [6a, 2′,3′,5′-Tri-O-benzoylinosine]",–,7 ± 1 µM,58 ± 5 µM,87 ± 10%,96 ± 30%,1.8 Times,–,–,–,–
"CC[C@@]1(O)C(=O)OCc2c1cc1n(c2=O)Cc2cc3c(CN(C)C)c(O)ccc3nc2-1 [Tpc, topotecan]",–,–,–,–,–,–,35±5%,39±1%,3 h,30 min
"Nc1nc2c(ncn2[C@@H]2O[C@H](CO)[C@@H](O)[C@H]2O)c(=O)[nH]1 [compound 1, reference compound]",–,> 50 µM,–,86 ± 5%,91 ± 5%,–,–,–,–,–
"Nc1nc2c(ncn2[C@H]2C[C@H](O)[C@@H](CO)O2)c(=O)[nH]1 [compound 2, reference compound]",–,> 50 µM,–,102 ± 11%,87 ± 18%,–,–,–,–,–
"Nc1ncnc2c1ncn2[C@@H]1O[C@H](CO)[C@@H](O)[C@H]1O [compound 3, reference compound]",–,> 50 µM,–,94 ± 9%,95 ± 9%,–,–,–,–,–
"Nc1ncnc2c1ncn2[C@H]1C[C@H](O)[C@@H](CO)O1 [compound 4, reference compound]",–,> 50 µM,–,84 ± 12%,79 ± 15%,–,–,–,–,–
OC[C@H]1O[C@@H](n2cnc3c(NC(c4ccccc4)(c4ccccc4)c4ccccc4)ncnc32)[C@H](O)[C@@H]1O [compound 5b],practically did not lead to a decrease in Tdp1 activity,> 50 µM,59.6 ± 0.6 µM,99 ± 8%,107 ± 9%,1.7 Times,–,–,–,–
"O=C(OC[C@H]1O[C@@H](n2cnc3c(Cl)ncnc32)[C@H](OC(=O)c2ccccc2)[C@@H]1OC(=O)c1ccccc1)c1ccccc1 [compound 6b, 6-Chloro-2′,3′,5′-tri-O-benzoyl-β-D-ribofuranosylpurine riboside]",–,2 ± 0.6 µM,56 ± 26 µM,86 ± 8%,75 ± 16%,1.9 Times,–,–,–,–
